Test results: US20080103127A1, “METHODS FOR TREATING DISRUPTIVE BEHAVIOR DISORDERS” (priority 2006, published 2008)

Tested on: general behavior of male mice
Test: General behavior of male mice by visual observation using a checklist of behaviors
Assay type: in vivo
Details: for Number of Mice Affected: Decreased Open Field Activity / Number of Mice Affected: Decreased Startle Reflex / Number of Mice Affected: Extensor Limb Tone (hind limb) / Number of Mice Affected: Impaired Horizontal Screen Performance / Number of Mice Affected: Impaired Visual Placing Reflex / Number of Mice Affected: Locomotor Ataxia / Number of Mice Affected: Loss of Corneal Reflex / Number of Mice Affected: Loss of Pinnal Reflex / Number of Mice Affected: Loss of Righting Reflex / Number of Mice Affected: Passive Response to Handling / Number of Mice Affected: Reduced Skin Plasticity / Number of Mice Affected: Soft Body Tone / Number of Mice Affected: Tail Pinch Response, Absent: N = 3/group
Experimental: The effects of test compound on general behavior were evaluated by visual observation using a checklist of behaviors.

## NC(=O)OC[C@@H](O)c1ccccc1Cl [COMPOUND #7, carisbamate]
40 mg/kg p.o., 1 h
  Number of Mice Affected: Decreased Open Field Activity: 0
  Number of Mice Affected: Decreased Startle Reflex: 0
  Number of Mice Affected: Extensor Limb Tone (hind limb): 0
  Number of Mice Affected: Impaired Horizontal Screen Performance: 0
  Number of Mice Affected: Impaired Visual Placing Reflex: 0
  Number of Mice Affected: Locomotor Ataxia: 0
  Number of Mice Affected: Loss of Corneal Reflex: 0
  Number of Mice Affected: Loss of Pinnal Reflex: 0
  Number of Mice Affected: Loss of Righting Reflex: 0
  Number of Mice Affected: Passive Response to Handling: 0
  Number of Mice Affected: Reduced Skin Plasticity: 0
  Number of Mice Affected: Soft Body Tone: 0
  Number of Mice Affected: Tail Pinch Response, Absent: 0
40 mg/kg p.o., 4 h
  Number of Mice Affected: Decreased Open Field Activity: 0
  Number of Mice Affected: Decreased Startle Reflex: 0
  Number of Mice Affected: Extensor Limb Tone (hind limb): 0
  Number of Mice Affected: Impaired Horizontal Screen Performance: 0
  Number of Mice Affected: Impaired Visual Placing Reflex: 0
  Number of Mice Affected: Locomotor Ataxia: 0
  Number of Mice Affected: Loss of Corneal Reflex: 0
  Number of Mice Affected: Loss of Pinnal Reflex: 0
  Number of Mice Affected: Loss of Righting Reflex: 0
  Number of Mice Affected: Passive Response to Handling: 0
  Number of Mice Affected: Reduced Skin Plasticity: 0
  Number of Mice Affected: Soft Body Tone: 0
  Number of Mice Affected: Tail Pinch Response, Absent: 0
100 mg/kg p.o., 1 h
  Number of Mice Affected: Decreased Open Field Activity: 0
  Number of Mice Affected: Decreased Startle Reflex: 0
  Number of Mice Affected: Extensor Limb Tone (hind limb): 0
  Number of Mice Affected: Impaired Horizontal Screen Performance: 0
  Number of Mice Affected: Impaired Visual Placing Reflex: 0
  Number of Mice Affected: Locomotor Ataxia: 0
  Number of Mice Affected: Loss of Corneal Reflex: 0
  Number of Mice Affected: Loss of Pinnal Reflex: 0
  Number of Mice Affected: Loss of Righting Reflex: 0
  Number of Mice Affected: Passive Response to Handling: 0
  Number of Mice Affected: Reduced Skin Plasticity: 0
  Number of Mice Affected: Soft Body Tone: 0
  Number of Mice Affected: Tail Pinch Response, Absent: 0
100 mg/kg p.o., 4 h
  Number of Mice Affected: Decreased Open Field Activity: 0
  Number of Mice Affected: Decreased Startle Reflex: 0
  Number of Mice Affected: Extensor Limb Tone (hind limb): 0
  Number of Mice Affected: Impaired Horizontal Screen Performance: 0
  Number of Mice Affected: Impaired Visual Placing Reflex: 0
  Number of Mice Affected: Locomotor Ataxia: 0
  Number of Mice Affected: Loss of Corneal Reflex: 0
  Number of Mice Affected: Loss of Pinnal Reflex: 0
  Number of Mice Affected: Loss of Righting Reflex: 0
  Number of Mice Affected: Passive Response to Handling: 0
  Number of Mice Affected: Reduced Skin Plasticity: 0
  Number of Mice Affected: Soft Body Tone: 0
  Number of Mice Affected: Tail Pinch Response, Absent: 0
300 mg/kg p.o.
  effect on general behavior in mice: produced sedation
300 mg/kg p.o., 1 h
  Number of Mice Affected: Decreased Open Field Activity: 3
  Number of Mice Affected: Decreased Startle Reflex: 3
  Number of Mice Affected: Extensor Limb Tone (hind limb): 3
  Number of Mice Affected: Impaired Horizontal Screen Performance: 3
  Number of Mice Affected: Impaired Visual Placing Reflex: 3
  Number of Mice Affected: Locomotor Ataxia: 0
  Number of Mice Affected: Loss of Corneal Reflex: 3
  Number of Mice Affected: Loss of Pinnal Reflex: 3
  Number of Mice Affected: Loss of Righting Reflex: 3
  Number of Mice Affected: Passive Response to Handling: 3
  Number of Mice Affected: Reduced Skin Plasticity: 3
  Number of Mice Affected: Soft Body Tone: 3
  Number of Mice Affected: Tail Pinch Response, Absent: 3
300 mg/kg p.o., 4 h
  Number of Mice Affected: Decreased Open Field Activity: 2
  Number of Mice Affected: Decreased Startle Reflex: 0
  Number of Mice Affected: Extensor Limb Tone (hind limb): 2
  Number of Mice Affected: Impaired Horizontal Screen Performance: 2
  Number of Mice Affected: Impaired Visual Placing Reflex: 0
  Number of Mice Affected: Locomotor Ataxia: 2
  Number of Mice Affected: Loss of Corneal Reflex: 0
  Number of Mice Affected: Loss of Pinnal Reflex: 0
  Number of Mice Affected: Loss of Righting Reflex: 0
  Number of Mice Affected: Passive Response to Handling: 0
  Number of Mice Affected: Reduced Skin Plasticity: 0
  Number of Mice Affected: Soft Body Tone: 2
  Number of Mice Affected: Tail Pinch Response, Absent: 0
Doses up to 100 mg/kg p.o.
  behavioral or physical signs in mice: No behavioral or physical signs were observed
